Our source for the TGI and GI50 values is PubChem BioAssay (NCI).

What all share (experiment): NCI anticancer screen, dose series, 48 h
In experiment [1] the test system is MDA-MB-231 breast.
Experiment [2] relates to XF 498 CNS.
For experiment [3], the system named is MCF7 breast.
Experiment [4] concerns T-47D breast.
For experiment [5], the system named is DMS 273 small cell lung.
The test system of experiment [6] is LXFL 529 NSCLC.
For experiment [7], the system named is DLD-1 colon.
Experiment [8] has as its system M19-MEL melanoma.
In experiment [9] the test system is KM20L2 colon.
The subject of experiment [10] is NCI/ADR-RES ovarian.

“And” between values parts separate entries of the source, which are not always exact repeats. Equal values may be shown once.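 A five-concentration, 48-hour dose response in 96-well plates underlies each endpoint, interpolated linearly between surrounding concentrations. GI50 is the concentration that inhibits growth by half. TGI is the concentration that stops growth completely.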

Take `COc1ccc2c(c1)C=C([N+](=O)[O-])C(C1OC(C)(C)OC1C1COC(C)(C)O1)O2` (stereo not drawn): the TGI came out at 6.6 µM in experiment [1]; 22.9 µM in [2]; 9.12 µM in experiment [3]; 26.6 µM in experiment [4]; 9.22 µM in [5]; 13.8 µM in experiment [6]. For the same compound, the figures for the TGI in experiment [7], in [8] and in [9] were 3.15 µM, 3.31 µM and 17.3 µM, respectively.
In the case of `CCC1(O)C(=O)OCc2c1cc1n(c2=O)Cc2cc3ccc(C=O)cc3nc2-1` (stereo not drawn), the GI50 in experiment [1] was 19.4 µM; in experiment [10] it was 1.33 µM; in [3] it was 0.187 µM; in [4], 0.412 µM. For the same compound, the TGI was 50 µM and 68.2 µM in [1]; 19.2 µM in experiment [2]; 6.73 µM and 12.6 µM in experiment [10]; 50 µM and 10.6 µM in experiment [3]; 3.31 µM and 8.72 µM in experiment [4]; 3.89 µM in [5]. The TGI in [6] was over 100 µM; in experiment [7], over 100 µM; in [8], 19.8 µM; in [9], over 50.3 µM.
`CN/N=C(/CCN1CCCC1)CC(c1ccccc1)c1c(O)c2ccccc2oc1=O` (stereo not drawn): the TGI in [1], in experiment [2], in experiment [10], in experiment [3], in experiment [4] and in experiment [5] was over 100 µM in each case. The TGI in experiment [6], in experiment [7], in [8] and in experiment [9] was over 100 µM in each case.
